According to patent EP4772177A1, “MUSCLE ATROPHY INHIBITOR” (National University Corporation Kobe University, priority 2023, dated 2025):

Columns and labels:
[1] = system: muscle atrophy model mice (immobilized mice); assay: Effects of hydroxylated fatty acid on muscle atrophy model mice (hind limbs immobilized with plastic casts); format: in vivo, C57BL/6J mice; details: 1% in diet for 20 days (immobilization for the latter 10 days); for loss of soleus muscle (muscle weight per body weight): Fig. 2, n = 6; for loss of gastrocnemius muscle (gastrocnemius muscle weight per body weight): Fig. 3, n = 6; for loss of soleus muscle cross-sectional area: HE staining, 400 fibers pooled from 2 mice, Fig. 4
Source text: C57BL/6J mice (male, 10 weeks old) were fed a normal diet (CE-2, CLEA Japan, Inc.), a 1% linoleic acid-containing diet (LA), or a 1% 10-hydroxy-cis-12-octadecenoic acid-containing diet (HYA) (LA manufactured by Sigma-Aldrich and HYA manufactured by Noster Inc. were used) each for 10 days. Then, under general anesthesia, both hind limbs of the mice were immobilized with plastic casts to create immobilized mice. After 10 days of immobilization (still receiving the normal diet or each mixed diet), the mice were sacrificed and weighed. Both soleus muscles were then collected and weighed. The comparison results of muscle weight per body weight are shown in Fig. 2 (n = 6, *P < 0.05, **P < 0.01, 2-way ANOVA with Bonferroni's post hoc test). Furthermore, under the same conditions, both gastrocnemius muscles were collected and weighed. The comparison results of gastrocnemius muscle weight per body weight are shown in Fig. 3 (n = 6, *P < 0.05, **P < 0.01, 2-way ANOVA with Bonferroni's post hoc test).
(§1) In addition, the formalin-soaked soleus muscles were cut in the cross section at its largest diameter, and sections were prepared. After HE staining, the cross-sectional area of the muscle fibers was measured. The comparison results of soleus muscle cross-sectional area are shown in Fig. 4 (the area of 400 fibers pooled from 2 mice was measured and averaged for each condition, **P < 0.01, 2-way ANOVA with Bonferroni's post hoc test).

[2] = system: muscle atrophy model mice (high-fat diet administered mice); assay: Effects of hydroxylated fatty acid on muscle atrophy model mice (high-fat diet administration); format: in vivo, C57BL/6J mice; details: 1% added to high-fat diet for 14 days, compared to administration of a high-fat diet alone; for soleus muscle weight (per body weight): Fig. 7, n = 12; for gastrocnemius muscle weight (per body weight): Fig. 8, n = 12; for tibialis anterior muscle cross-sectional area: HE staining, 400 fibers pooled from 2 mice, Fig. 9(B)
Procedure: C57BL/6J mice (male, 10 weeks old) were fed a normal diet (CE-2, CLEA Japan, Inc.), a high-fat diet (HFD32, CLEA Japan, Inc.), a 1% HYA-added high-fat diet, or a 1% LA (linoleic acid)-added high-fat diet (HYA manufactured by Noster Inc., LA manufactured by Sigma-Aldrich were used) each for 14 days to create a muscle atrophy model mouse by high-fat diet administration, and the effects by the administration of hydroxylated fatty acid were evaluated.
C57BL/6J mice (male, 10 weeks old) were fed a normal diet (CE-2, CLEA Japan, Inc.), a high-fat diet (HFD32, CLEA Japan, Inc.), a 1% HYA-added high-fat diet, or a 1% LA (linoleic acid)-added high-fat diet each for 14 days. After feeding, the mice were sacrificed and weighed. Both soleus muscles were collected and weighed. The comparison results of soleus muscle weight per body weight are shown in Fig. 7 (n = 12, **P < 0.01, 2-way ANOVA with Bonferroni's post hoc test). Furthermore, under the same conditions, both gastrocnemius muscles were collected and weighed. The comparison results of gastrocnemius muscle weight per body weight are shown in Fig. 8 (n = 12, **P < 0.01, 2-way ANOVA with Bonferroni's post hoc test).
as §1, with “formalin-soaked tibialis anterior muscle was” for “formalin-soaked soleus muscles were”, “HE staining (Fig. 9(A)),” for “HE staining,”, “of tibialis anterior” for “of soleus”, “Fig. 9(B)” for “Fig. 4”

[3] = compared to administration of a normal diet
[4] = compared to administration of linoleic acid

Row | SMILES | loss of soleus muscle (muscle weight per body weight) [1, 3] | loss of gastrocnemius muscle (gastrocnemius muscle weight per body weight) [1, 3] | loss of soleus muscle cross-sectional area [1, 3] | loss of gastrocnemius muscle (gastrocnemius muscle weight per body weight) [1, 4] | loss of soleus muscle cross-sectional area [1, 4] | soleus muscle weight (per body weight) [2] | gastrocnemius muscle weight (per body weight) [2] | tibialis anterior muscle cross-sectional area [2]
1 | CCCCC/C=C\CC(O)CCCCCCCCC(=O)O (stereo not drawn) [HYA, 10-hydroxy-cis-12-octadecenoic acid] | significantly inhibited | significantly inhibited | significantly inhibited | significantly inhibited | significantly inhibited | significantly increased | significantly increased | significantly increased
2 | CCCCC/C=C\C/C=C\CCCCCCCC(=O)O [linoleic acid, reference compound] | did not significantly inhibit | did not significantly inhibit | did not significantly inhibit |  |  | a tendency toward an increase | a tendency toward an increase | a tendency toward an increase
